ChEMBL document CHEMBL5385945, “An ascidian Polycarpa aurata-derived pan-inhibitor against coronaviruses targeting Mpro” (Bioorg Med Chem Lett, 2024)

How the values were obtained:
[1] = target: Replicase polyprotein 1ab (Severe acute respiratory syndrome coronavirus 2, UniProt P0DTD1); assay: (§1) Inhibition of SARS-CoV-2 Main protease
[2] = target: Replicase polyprotein 1ab (Severe acute respiratory syndrome coronavirus 2) (UniProt P0DTD1); assay: Inhibition of SARS-CoV-2 Main protease at 2 uM relative to control
[3] = Inhibition of Porcine epidemic diarrhea virus Main protease
[4] = target: Replicase polyprotein 1ab (Severe acute respiratory syndrome coronavirus 2) (UniProt P0DTD1); assay: as §1
SARS-CoV-2 = assay: Antiviral activity against SARS-CoV-2 infected in African green monkey Vero E6 cells assessed as inhibition of viral replication; type: functional, organism-based; conditions: Severe acute respiratory syndrome coronavirus 2, Vero C1008
[5] = system: Porcine epidemic diarrhea virus; assay: Antiviral activity against Porcine epidemic diarrhea virus infected in African green monkey Vero E6 cells assessed as inhibition of viral replication; type: functional, organism-based; conditions: Vero C1008
[6] = Selectivity ratio of CC50 for cytotoxicity against African green monkey Vero E6 cells to EC50 for antiviral activity against SARS-CoV-2 infected in African green monkey Vero E6 cells; type: toxicity, cell-based, Vero C1008; conditions: read-out: Ratio CC50/EC50
[7] = Cytotoxicity against African green monkey Vero E6 cells assessed as reduction of cell viability; type: toxicity, cell-based, Vero C1008; conditions: chlorocebus sabaeus

Row | Structure (SMILES) | IC50 [1] | inhibition [2] | IC50 [3] | inhibition [4] | EC50 (SARS-CoV-2) | EC50 [5] | selectivity ratio [6] | CC50 [7]
1 | CC(=O)O[C@H](CC=C(C)C)C1=CC(=O)c2c(O)ccc(O)c2C1=O [ACETYLSHIKONIN] | 350 nM | > 50% | – | – | – | – | – | –
2 | COc1ccc(-c2nc(N)n(C)c2SSc2c(-c3ccc(OC)cc3)nc(N)n2C)cc1 | 30 nM | > 50% | 120 nM | Dose-Dependent Effect | 4090 nM | 5680 nM | > 10 | 50200 nM
3 | CC(C)=CC[C@@H](OC(=O)CC(C)(C)O)C1=CC(=O)c2c(O)ccc(O)c2C1=O [BETA-HYDROXYISOVALERYLSHIKONIN] | 1020 nM | > 50% | – | – | – | – | – | –
